Experimental data from patent US11980598B2, “N-(2-(substituted-naphth-1-yl)ethyl) substituted amide compound, preparation and uses thereof” (BEIJING GREATWAY PHARMACEUTICAL TECHNOLOGY CO., LTD., priority 2017, dated 2024).
Where two headings read alike, the source gives them in different places.

How the values were obtained:
[1] = In vitro metabolism study, human liver microsomal incubation system; format: in vitro ADME
Experimental: (§1) TSQ Quantum liquid chromatography-mass spectrometer (LC/MS/MS) from Finnigan Inc, USA, chromatography column: TSKgel Amide-80 column (2.0 mm I.D.×100 mm, 5 μm); mobile phase: acetonitrile-water-formic acid (50:50:0.1); flow rate: 0.2 mL/min; injection volume: 5 μL; column temperature: room temperature. Ionization source is electrospray ionization (ESI) with 4.8 KV of spray voltage; capillary temperature (TEM): 300° C.; sheath gas: N2, flow rate: 10 psi; auxiliary gas: N2, flow rate: 1 psi; collision gas (CID): Ar at a pressure of 1.5 mTorr. The mass spectrometry scanning method was selective reaction monitoring (SRM) and detected by positive ion method. The internal standard was a […] solution of aconitine in acetonitrile, the minimum limit of quantification was 5 ng/mL, and the correlation coefficient was >0.99.
Approximately 10 mg of each sample to be tested was accurately weighed, dissolved in 0.1 mL of DMSO, and serially diluted with purified water to a 10 μM, 1 μM standard stock solution. An ice bath was operated and the incubation system for detection was formulated according to Table 4. NADPH was added to the incubation system to start the reaction, and then 50 μL was immediately added to 150 μL acetonitrile as a zero-time sample and a 1 μM standard curve sample. Another 1 μM standard stock solution was added to the incubation system, and then 50 μL was immediately added to 150 μL acetonitrile as a 0.1 μM standard curve sample. […] Each sample was shaken, and centrifuged at 18000 g for 10 min. The supernatant was taken for LC/MS/MS injection and determination.

[2] = In vivo metabolism study, rat oral/tail vein injection model; conditions: for half-life: read-out: t½ (converted); for bioavailability: oral 5 mg/kg vs intravenous 0.5 mg/kg, dose conversion, read-out: F % (bioavailability)
Experimental: Male SD rats, weighing 200±20 g, SPF grade, were purchased from SPF Biotechnology Co., Ltd.
as §1
Formulation of a solution for intravenous administration: approximately 5 mg of each test drug was accurately weighed, and dissolved in 50 μL of DMSO. To the solution was added an appropriate amount of 40% PEG400 aqueous solution to prepare a 0.5 mg/mL solution. The administration volume was 0.2 mL/200 g body weight, and the dose was 0.5 mg/kg body weight according to concentration conversion.
Formulation of a solution for i.g. administration: approximately 5 mg of each test drug was accurately weighed, and suspended and dispersed with a 1% aqueous solution of HPMC to prepare a 1 mg/mL suspension. The administration volume was 1 mL/200 g body weight, and the dose was 5 mg/kg body weight in terms of concentration according to concentration conversion.
Rats were randomly divided into 4 groups of 5 rats each. Oral gavage and tail vein administration were carried out according to the above dosages. At 2 min, 5 min, 15 min, 30 min, 1 h, 1.5 h, 2 h, and 3 h after administration, blood was collected from an orbit, and centrifuged at 8000 rpm for 10 min. 50 μL of plasma was weighed, and added with 50 μL of internal standard and 150 μL of acetonitrile. The mixture was mixed by shaking, and centrifuged at 18000 rpm for 10 min. The supernatant was taken for LC/MS/MS injection and determination. The determined data were analyzed using a DAS pharmacokinetic program to calculate the main pharmacokinetic parameters.

Kunming mice = test: Tail suspension test (TST) in mice; format: in vivo, mouse; conditions: 10 mg/kg intraperitoneal, 3 days, last 4 of 6 min
Experimental: Animals: Kunming mice, male, body weight 18-22 g, SPF grade; SD rats, male, body weight 150-180 g, SPF grade. The test was carried out after acclimatization, and the animal was fasted for 12 hours before the test.
All drugs for the test were suspended and dispersed in a 1% aqueous solution of hydroxypropyl methylcellulose (HPMC), and shaken well before use. […] The doses for administration were all 10 mg/kg. For the concentration and volume for administration, see J Psychiatry Neurosci 2004; 29(2):126-133. The mice were intraperitoneally administered in a volume of 0.5 mL/20 g; and the rats were administered by i.g. in a volume of 2 mL/100 g.
Mice were randomly divided into groups according to weight balance. Intraperitoneal injection was administered for three consecutive days, once a day, and the tail suspension test were performed 30 minutes after the third day. The tail suspension box was 25×25×35 cm, and a small clip was connected with a rope at the center of the top plate. An adhesive tape was stuck to the tail of the mouse 2 cm away from the tail end, and the adhesive tape was clamped with the clip to make the mouse in an inverted position. The duration of immobility was recorded during the last 4 minutes of total 6 minutes observed.

SD rats = test: Acute toxicity test of rat; format: in vivo; conditions: for Acute reaction after single administration / Adverse reactions during 14-day observation / Body weight compared with the blank group: rats, 2000 mg/kg i.g.
Experimental: Rats were administered by i.g. at a dose of 2000 mg/kg. The drugs were dispersed with a 1% aqueous solution of hydroxypropyl methylcellulose (HPMC).

[3] = incubation time 0 min, 1 μM, 1 mg/mL microsome, 37° C.

[2H]C([2H])([2H])Oc1cc2c(CCNC(C)=O)cccc2cc1Cl [Example 1, N-(2-(6-chloro-7-deuteromethoxy-naphthalen-1-yl)ethyl)acetamide]
Metabolic stability in human liver microsome (comparison) ([1]; compared among examples and controls): highest metabolic stability
Concentration measured at incubation time point [1, 3]: 1001 ± 19 nM
Concentration measured at incubation time point ([1]; incubation time 5 min): 793 ± 108 nM
Concentration measured at incubation time point ([1]; incubation time 15 min): 194 ± 46 nM
Concentration measured at incubation time point ([1]; incubation time 30 min): 110 ± 88 nM
half-life ([2]; male, SD, plasma, intravenous injection 0.5 mg/kg): 28.8 min
AUC(0-t) ([2]; male, SD, plasma, iv, 0.5 mg/kg, intravenous injection 0.5 mg/kg, read-out: AUC(0-t)): 48.9 ng·h/mL
bioavailability ([2]; male, SD, plasma): 50.9%
half-life ([2]; male, SD, plasma, oral 5 mg/kg): 29.4 min
AUC(0-t) ([2]; male, SD, plasma, po, 5 mg/kg, oral 5 mg/kg, read-out: AUC(0-t)): 249 ng·h/mL
AUC(0-t) ([2]; oral 5 mg/kg): 248.83 ng·h/mL
Immobility time (Kunming mice): 55.7 ± 19.7 s
Safety compared with control drug (SD rats; rat model, overall): safer than the control drug Agomelatine
Acute reaction after single administration (SD rats): the activity of the rats became slightly smaller but there were no obvious adverse reactions
Adverse reactions during 14-day observation (SD rats): no obvious adverse reactions within 14 days after the administration
Body weight compared with the blank group (SD rats): no significant difference in body weight compared with the blank group

COc1ccc2cccc(CCNC(C)=O)c2c1 [Agomelatine, reference compound]
Concentration measured at incubation time point [1, 3]: 999 ± 59 nM
Concentration measured at incubation time point ([1]; incubation time 5 min): 539 ± 19 nM
Concentration measured at incubation time point ([1]; incubation time 15 min): 9 ± 5 nM
half-life ([2]; male, Sprague-Dawley (SD), plasma, intravenous injection 0.5 mg/kg): 20.4 min
AUC(0-t) ([2]; male, Sprague-Dawley (SD), plasma, iv, 0.5 mg/kg, intravenous injection 0.5 mg/kg, read-out: AUC(0-t)): 102 ng·h/mL
bioavailability ([2]; male, Sprague-Dawley (SD), plasma): 5.05%
half-life ([2]; male, Sprague-Dawley (SD), plasma, oral 5 mg/kg): 40.2 min
AUC(0-t) ([2]; male, Sprague-Dawley (SD), plasma, po, 5 mg/kg, oral 5 mg/kg, read-out: AUC(0-t)): 51.6 ng·h/mL
AUC(0-t) ([2]; oral 5 mg/kg): 51.57 ng·h/mL
Immobility time (Kunming mice): 75.1 ± 21.4 s
Acute reaction after single administration (SD rats): 8 rats were slow to move or became lethargic, and all returned to normal within 2 hours
Adverse reactions during 14-day observation (SD rats): no obvious adverse reactions within 14 days after the administration
Body weight compared with the blank group (SD rats): no significant difference in body weight compared with the blank group
